Results on 4 compounds are retold here after EPA's ToxValDB 9.5 (doi:10.2903/j.efsa.2020.5755).

One series deals with Tagia sp. The conditions noted are these: chronic/long-term; growth.
The test system of the next series is Rattus norvegicus. The conditions noted are these: for LD50: acute, mortality.
The next series relates to Colinus virginianus. The conditions noted are these: reproduction developmental.
Another series relates to Canidae. The conditions noted are these: chronic; duration: 1 years; Dog Other.
In a further series the test system is Landoltia sp. The conditions noted are these: chronic/long-term; duration: 7 days; frond number.
Another series deals with Xenopus laevis. The conditions noted are these: chronic/long-term, development.
The test system of a further series is Daphnia magna. Conditions: chronic/long-term; duration: 28 days; reproduction.
A further series has as its system Folsomia candida. The conditions noted are these: chronic/long-term; duration: 28 days; reproduction.
Another series deals with Oncorhynchus mykiss. Conditions: acute; duration: 96 hours; mortality.
Another series has as its system Typhlodromus pyri. In words: LR50; higher = less toxic. The conditions noted are these: mortality.
Another series has as its system Anas platyrhynchos. Conditions: reproductive.
For the next series, the system named is Apis mellifera. Conditions: acute, mortality.
A further series concerns Neomysis kadiakensis. The conditions noted are these: chronic/long-term; duration: 39 days; other.
The test system of the next series is Pimephales promelas. The conditions noted are these: chronic/long-term; reproduction.
The next series concerns Coturnix japonica. Conditions: acute; oral; mortality.

Turning to `S=C1NCCN1` [4,5-Dihydro-2-mercaptoimidazole], the NOEC with Tagia sp. came to 24 mg/kg; in the series with Landoltia sp. it was 960000 µg/L; with Xenopus laevis (duration: 28 days), 10000 µg/L; in the series with Xenopus laevis (duration: 90 days) it was 1000 µg/L; with Daphnia magna, 2000 µg/L; in the series on Folsomia candida, 10.6 mg/kg. Further, the no-observed-adverse-effect level (NOAEL) in the series with Rattus norvegicus (chronic) was found to be 2 mg/kg-day; in the series with Rattus norvegicus (developmental, development), 5 mg/kg-day; in the series on Rattus norvegicus (reproduction developmental) it was 0.2 mg/kg-day; in the series on Canidae, 0.2 mg/kg-day. In addition, the NOEL with Colinus virginianus was 1.8 mg/kg-day.

`S=C1SSC2=NCCN12` [5,6-Dihydro-3H-imidazo[2,1-c]-1,2,4-dithiazole-3-thione] gave an NOEC in the series with Tagia sp. of 20 mg/kg. This compound yielded an LD50 with Rattus norvegicus (oral) of 240 mg/kg-day.

Take `O=C1NCCN1` [Ethylene urea]: the LD50 in the series with Rattus norvegicus (oral) is > 5000 mg/kg-day. Moreover, the NOAEL with Rattus norvegicus (reproduction developmental, oral, reproduction) stood at 37 mg/kg-day. Moreover, in the series on Oncorhynchus mykiss, the LC50 was > 122 µg/mL.

Consider `S=C([S-])NCCNC(=S)[S-].S=C([S-])NCCNC(=S)[S-].[Mn+2].[Zn+2]` [Mancozeb], for which the LR50 in the series on Typhlodromus pyri (chronic/long-term, duration: 14 days) is 107 g/ha; with Typhlodromus pyri (not reported), 26.7 g/ha. Also, the NOEL with Anas platyrhynchos is 18.6 mg/kg-day. Also, the LD50 is 162 µg/piece in the series with Apis mellifera (dermal); 141 µg/piece with Apis mellifera (oral, unspecified); > 2000 mg/kg-day in the series with Rattus norvegicus (oral); > 2000 mg/kg-day in the series with Coturnix japonica. Further, the values for the NOEC in the series on Tagia sp., in the series on Neomysis kadiakensis and in the series on Pimephales promelas were 10 mg/kg, 1.64 µg/L and 1.35 µg/L, respectively. Also, the no-observed-adverse-effect level (NOAEL) came out at 2 mg/kg-day in the series with Rattus norvegicus (chronic) and 6.8 mg/kg-day in the series on Rattus norvegicus (subchronic, duration: 90 days, oral, clinical chemistry). In the series with Oncorhynchus mykiss, this compound displayed a median lethal concentration (LC50) of 0.074 µg/mL.
